How the values were obtained:
Assay in all cases: Kinase inhibitor library screening, PrestoBlue cell viability, 1 or 10 μM, 72 h
[1] = system: 501Mel-XP cells (Vemurafenib-resistant); settings: 501Mel XP
[2] = system: IGR37-GP cells (Dabrafenib-resistant); settings: IGR37 GP
IGR37 cells (parental) = settings: IGR37 Parental
[3] = system: A375-GP cells (Dabrafenib-resistant); settings: A375 GP
A375 cells (parental) = settings: A375 Parental
501Mel cells (parental) = settings: 501Mel Parental
How it was run: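 Single-point screen at two doses over three days. Parental and BRAF-inhibitor-resistant sublines (XP: Vemurafenib; GP: Dabrafenib) were assessed by PrestoBlue viability, reported relative to untreated cells.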

[4] = system: 501Mel-GP cells (Dabrafenib-resistant); settings: 501Mel GP
[5] = system: IGR37-XP cells (Vemurafenib-resistant); settings: IGR37 XP
[6] = system: A375-XP cells (Vemurafenib-resistant); settings: A375 XP

Q: With `CNC(=O)c1cc(Oc2ccc(NC(=O)Nc3ccc(Cl)c(C(F)(F)F)c3)cc2)ccn1` [Sorafenib (Nexavar)] as the compound, how does the “cell viability (kinase inhibitor library screening)” value ([1]; 1μΜ, in %) read?
A: 96.9

Q: What about the “cell viability (kinase inhibitor library screening)” value ([1]; 10μΜ, in %) of the same compound?
A: 23.2

Q: And the “cell viability (kinase inhibitor library screening)” value ([2]; 1μΜ, in %)?
A: 102.7

Q: And the “cell viability (kinase inhibitor library screening)” value ([2]; 10μΜ, in %)?
A: 41.3

Q: And the “cell viability (kinase inhibitor library screening)” value (IGR37 cells (parental); 1μΜ, in %)?
A: 96.8

Q: What about the “cell viability (kinase inhibitor library screening)” value (IGR37 cells (parental); 10μΜ, in %) of the same compound?
A: 60.6

Q: And the “cell viability (kinase inhibitor library screening)” value ([3]; 1μΜ, in %)?
A: 80.9

Q: What about the “cell viability (kinase inhibitor library screening)” value ([3]; 10μΜ, in %) of the same compound?
A: 22.0

Q: And the “cell viability (kinase inhibitor library screening)” value (A375 cells (parental); 10μΜ, in %)?
A: 44.5

Q: And the “cell viability (kinase inhibitor library screening)” value (501Mel cells (parental); 1μΜ, in %)?
A: 97.8

Q: And the “cell viability (kinase inhibitor library screening)” value (501Mel cells (parental); 10μΜ, in %)?
A: 53.0

Q: What about the “cell viability (kinase inhibitor library screening)” value ([4]; 1μΜ, in %) of the same compound?
A: 104.7

Q: What about the “cell viability (kinase inhibitor library screening)” value ([5]; 1μΜ, in %) of the same compound?
A: 106.1

Q: What about the “cell viability (kinase inhibitor library screening)” value ([5]; 10μΜ, in %) of the same compound?
A: 16.7

Q: And the “cell viability (kinase inhibitor library screening)” value ([6]; 1μΜ, in %)?
A: 95.0

Q: What about the “cell viability (kinase inhibitor library screening)” value ([6]; 10μΜ, in %) of the same compound?
A: 16.4

Q: `CN1CCN(c2nc(C3=C(c4c[nH]c5ccccc45)C(=O)NC3=O)c3ccccc3n2)CC1` [Sotrastaurin (AEB071)] was tested. Which “Cell viability in kinase inhibitor library screening, 501Mel XP, 1μΜ” value ([1]; 1μΜ, 72 h, in %) did it give?
A: 96.4

Q: What about the “Cell viability in kinase inhibitor library screening, 501Mel XP, 10μΜ” value ([1]; 10μΜ, 72 h, in %) of the same compound?
A: 77.9

Q: And the Cell viability in kinase inhibitor library screening, IGR37 GP, 10μΜ ([2]; 10μΜ, 72 h)?
A: 89.1%

Q: And the “Cell viability in kinase inhibitor library screening, IGR37 GP, 1μΜ” value ([2]; 1μΜ, 72 h, in %)?
A: 96.8

Q: What about the “Cell viability in kinase inhibitor library screening, IGR37 Parental, 1μΜ” value (IGR37 cells (parental); 1μΜ, 72 h, in %) of the same compound?
A: 108.5

Q: What about the “Cell viability in kinase inhibitor library screening, IGR37 Parental, 10μΜ” value (IGR37 cells (parental); 10μΜ, 72 h, in %) of the same compound?
A: 95.3

Q: What about the “Cell viability in kinase inhibitor library screening, A375 GP, 10μΜ” value ([3]; 10μΜ, 72 h) of the same compound?
A: 88.5

Q: And the “Cell viability in kinase inhibitor library screening, A375 Parental, 1μΜ” value (A375 cells (parental); 1μΜ, 72 h)?
A: 108.3

Q: And the “Cell viability in kinase inhibitor library screening, 501Mel Parental, 10μΜ” value (501Mel cells (parental); 10μΜ, 72 h, in %)?
A: 95.7

Q: And the “Cell viability in kinase inhibitor library screening, 501Mel GP, 1μΜ” value ([4]; 1μΜ, 72 h, in %)?
A: 105.7

Q: And the “Cell viability in kinase inhibitor library screening, 501Mel GP, 10μΜ” value ([4]; 10μΜ, 72 h, in %)?
A: 91.8

Q: And the Cell viability in kinase inhibitor library screening, IGR37 XP, 10μΜ ([5]; 10μΜ, 72 h)?
A: 78.1%

Q: And the “Cell viability in kinase inhibitor library screening, A375 XP, 1μΜ” value ([6]; 1μΜ, 72 h)?
A: 102.8

Q: And the “Cell viability in kinase inhibitor library screening, A375 XP, 10μΜ” value ([6]; 10μΜ, 72 h)?
A: 96.9

Q: How did the “cell viability (kinase inhibitor library screening)” value ([1]; 1μΜ, in %) turn out when `CCN(CC)CCNC(=O)c1c(C)[nH]c(/C=C2\C(=O)Nc3ccc(F)cc32)c1C.O=C(O)C[C@H](O)C(=O)O` [Sunitinib Malate (Sutent)] was run?
A: 92.7

Q: And the “cell viability (kinase inhibitor library screening)” value ([1]; 10μΜ, in %)?
A: -0.452

Q: What about the “cell viability (kinase inhibitor library screening)” value ([2]; 1μΜ, in %) of the same compound?
A: 87.4

Q: And the “cell viability (kinase inhibitor library screening)” value ([2]; 10μΜ, in %)?
A: 7.9

Q: And the “cell viability (kinase inhibitor library screening)” value (IGR37 cells (parental); 1μΜ, in %)?
A: 97.5

Q: What about the “cell viability (kinase inhibitor library screening)” value (IGR37 cells (parental); 10μΜ, in %) of the same compound?
A: 68.0

Q: And the “cell viability (kinase inhibitor library screening)” value ([3]; 10μΜ, in %)?
A: 72.3

Q: What about the “cell viability (kinase inhibitor library screening)” value (A375 cells (parental); 1μΜ, in %) of the same compound?
A: 104.0

Q: What about the “cell viability (kinase inhibitor library screening)” value (A375 cells (parental); 10μΜ, in %) of the same compound?
A: 67.2

Q: What about the “cell viability (kinase inhibitor library screening)” value (501Mel cells (parental); 1μΜ, in %) of the same compound?
A: 99.9

Q: What about the “cell viability (kinase inhibitor library screening)” value (501Mel cells (parental); 10μΜ, in %) of the same compound?
A: 0.237

Q: What about the “cell viability (kinase inhibitor library screening)” value ([4]; 10μΜ, in %) of the same compound?
A: 1.4

Q: And the “cell viability (kinase inhibitor library screening)” value ([5]; 1μΜ, in %)?
A: 100.5

Q: What about the “cell viability (kinase inhibitor library screening)” value ([5]; 10μΜ, in %) of the same compound?
A: 1.2

Q: And the “cell viability (kinase inhibitor library screening)” value ([6]; 10μΜ, in %)?
A: 68.1

Q: What does the source list for `COc1cc(N2CCC(N3CCN(C)CC3)CC2)ccc1Nc1ncc(Cl)c(Nc2ccccc2S(=O)(=O)C(C)C)n1` [TAE684 (NVP-TAE684)]?
A: cell viability (kinase inhibitor library screening) ([1]; 10μΜ, 72 h): -0.231%; cell viability (kinase inhibitor library screening) ([2]; 1μΜ, 72 h): 84.1%; cell viability (kinase inhibitor library screening) ([2]; 10μΜ, 72 h): 1.7%; cell viability (kinase inhibitor library screening) (IGR37 cells (parental); 1μΜ, 72 h): 99.2%; cell viability (kinase inhibitor library screening) (IGR37 cells (parental); 10μΜ, 72 h): 4.4%; cell viability (kinase inhibitor library screening) ([3]; 1μΜ, 72 h): 61.5%; cell viability (kinase inhibitor library screening) ([3]; 10μΜ, 72 h): 8.3%; cell viability (kinase inhibitor library screening) (A375 cells (parental); 10μΜ, 72 h): 8.8%; cell viability (kinase inhibitor library screening) (A375 cells (parental); 1μΜ, 72 h): 76.3%; cell viability (kinase inhibitor library screening) (501Mel cells (parental); 1μΜ, 72 h): 103.2%; cell viability (kinase inhibitor library screening) (501Mel cells (parental); 10μΜ, 72 h): 0.331%; cell viability (kinase inhibitor library screening) ([4]; 1μΜ, 72 h): 112.8%; cell viability (kinase inhibitor library screening) ([4]; 10μΜ, 72 h): -0.0599%; cell viability (kinase inhibitor library screening) ([5]; 1μΜ, 72 h): 67.8%; cell viability (kinase inhibitor library screening) ([5]; 10μΜ, 72 h): 1.0%; cell viability (kinase inhibitor library screening) ([6]; 1μΜ, 72 h): 72.8%; cell viability (kinase inhibitor library screening) ([6]; 10μΜ, 72 h): 13.8%
